Reference: patent US9302999B2, “Substituted triazoles as herbicides” (E. I. DU PONT DE NEMOURS AND COMPANY, priority 2012, dated 2016)

Legend:
Assay type in all cases: in vivo
Settings in all cases: Preemergence
corn (Zea mays) = assay: Test F pre-/postemergence: corn
Description: (§1) Seeds of plant species selected from corn (Zea mays), soybean (Glycine max), velvetleaf (Abutilon theophrasti), lambsquarters (Chenopodium album), poinsettia, wild (wild poinsettia, Euphorbia heterophylla), pigweed, palmer (palmer pigweed, Amaranthus palmeri), waterhemp (common waterhemp, Amaranthus rudis), surinam grass (Brachiaria decumbens), crabgrass, Brazil (Brazilian crabgrass, Digitaria horizontalis), panicum, fall (fall panicum Panicum dichotomiflorum), crabgrass, large (large crabgrass, Digitaria sanguinalis), foxtail, giant (giant foxtail, Setaria faberii), foxtail, green (green foxtail Setaria viridis), goosegrass (Eleusine indica), ragweed (common ragweed, Ambrosia elatior), barnyardgrass (Echinochloa crus-galli), sandbur (southern sandbur, Cenchrus echinatus), arrowleaf sida (Sida rhombifolia), ryegrass, Italian (Italian ryegrass, Lolium multiflorum), dayflower, VA (Virginia (VA) dayflower, Commelina virginica), field bindweed (Convolvulus arvensis), cocklebur (common cocklebur, Xanthium strumarium), morningglory (Ipomoea coccinea), nightshade (eastern black nightshade, Solanum ptycanthum), kochia (Kochia scoparia), nutsedge, yellow (yellow nutsedge, Cyperus esculentus), johnsongrass (Sorghum halepense), smartweed (ladysthumb smartweed, Polygonum persicaria), and beggarticks (hairy beggarticks, Bidens pilosa), were planted into a silt loam soil and treated preemergence with test chemicals formulated in a non-phytotoxic solvent mixture which included a surfactant. At the same time, plants selected from these crop and weed species and also pigweed (Amaranthus retroflexus), waterhemp_RES1 (ALS/Triazine resistant common waterhemp, Amaranthus rudis) and waterhemp_RES2 (ALS/HPPD resistant common waterhemp, Amaranthus rudis) were planted in pots containing a planting medium comprising spaghnum peat moss, vermiculite, wetting agent and starter nutrients treated with postemergence applications of some of the test chemicals formulated in the same manner. Plants ranged in height from 2 to 18 cm for postemergence treatments (1- to 4-leaf stage).
(§2) Treated plants and controls were maintained in a greenhouse for 14 to 21 days, after which time all species were compared to controls and visually evaluated. Plant response ratings, summarized in Table E, are based on a scale of 0 to 100 where 0 is no effect and 100 is complete control. A dash (-) response means no test result.

[1] = tested on: ryegrass, Italian (Italian ryegrass, Lolium multiflorum); assay: Test F pre-/postemergence: ryegrass, Italian
Description: as §1, §2

[2] = tested on: nutsedge, yellow (yellow nutsedge, Cyperus esculentus); assay: Test F pre-/postemergence: nutsedge, yellow
Description: as §1, §2

[3] = 16 g ai/ha, scale 0 to 100, 0 no effect, 100 complete control
[4] = 31 g ai/ha, scale 0 to 100, 0 no effect, 100 complete control

SMILES | Plant response rating, Corn (corn (Zea mays); [3]) | Plant response rating, Corn (corn (Zea mays); [4]) | Plant response rating, Corn (corn (Zea mays); 62 g ai/ha, scale 0 to 100) | Plant response rating, Corn (corn (Zea mays); 125 g ai/ha, scale 0 to 100) | Plant response rating, Corn (corn (Zea mays); 250 g ai/ha, scale 0 to 100) | Plant response rating, Ryegrass, Italian [1, 3] | Plant response rating, Ryegrass, Italian [1, 4] | Plant response rating, Ryegrass, Italian ([1]; 125 g ai/ha, scale 0 to 100) | Plant response rating, Ryegrass, Italian ([1]; 250 g ai/ha, scale 0 to 100) | Plant response rating, Nutsedge, Yellow [2, 3] | Plant response rating, Nutsedge, Yellow [2, 4] | Plant response rating, Nutsedge, Yellow ([2]; 125 g ai/ha, scale 0 to 100) | Plant response rating, Nutsedge, Yellow ([2]; 250 g ai/ha, scale 0 to 100)
COc1nn(-c2cccc(F)c2)nc1Cc1ccnc(C(F)(F)F)c1 [Compound 139] | 0 | 0 | 0 | 0 | 5 | 0 | 5 | 30 | 95 | 0 | 0 | 0 | 0
Cc1nn(-c2ccc(F)cc2F)nc1Oc1ccnc(C(F)(F)F)c1 [Compound 146] | 0 | 0 | 0 | 0 | 0 | 0 | 10 | 20 | 25 | 0 | 0 | 0 | 0
